Paper PMC6512342 (Biochemical pharmacology, 2018)
Values joined by “and” are separate entries in the source; they are usually repeats but may differ in a detail not shown here. Equal values may be shown once.

Key:
[1] = biological target: T1, human CYP2D6 (CYP2D6-incorporated proteoliposomes) (Homo sapiens, UniProt P10635); assay: MDMA-dependent time-dependent inhibition
[2] = biological target: T2, CYP2D6 (CYP2D6 Supersomes) (Homo sapiens, UniProt P10635); assay: Spectroscopic study of MDMA-dependent MIC formation in CYP2D6-SS; assay type: biochemical; settings: 100 μM MDMA, exponential fit
[3] = MDMA liver-to-blood ratio and liver concentration; settings: estimated from plasma peak and liver-to-blood ratio
human CYP2D6 = human CYP2D6 (Homo sapiens, UniProt P10635); assay: Substrate-induced spin shift titration, purified CYP2D6 in solution; assay type: binding; settings: for maximal amplitude of the spin shift: purified CYP2D6 in solution
[4] = biological target: T1, human CYP2D6 (CYP2D6-incorporated proteoliposomes); assay: Spectroscopic study of MDMA-dependent MIC formation in CYP2D6-PLS; assay type: biochemical
[5] = healthy volunteers, recreational dose 100–150 mg; cited from earlier work
[6] = biological target: T1, human CYP2D6 (CYP2D6-incorporated proteoliposomes); assay: MDMA utilization and DHMA formation in CYP2D6-PLS; assay type: in vitro ADME
[7] = biological target: T2, CYP2D6 (CYP2D6 Supersomes); assay: MDMA-dependent TDI in CYP2D6-SS with BMAMC as probe substrate; settings: 100 μM MDMA, exponential fit
[8] = biological target: T1, human CYP2D6 (CYP2D6-incorporated proteoliposomes); assay: Substrate-induced spin shift titration, CYP2D6-PLS; assay type: binding; settings: for Kd: dissociation constant (KD), spin shift titration
CYP2D6 = settings: read-out: KM for BMAMC; CYP2D6-containing bacterial membranes; cited from earlier work
CYP3A4 = settings: cited from earlier work
[9] = substrate: CCCCNCc1cc(=O)oc2cc(OC)ccc12; assay: Fluorometric determination of CYP2D6 activity with BMAMC in CYP2D6-SS; assay type: biochemical, human; settings: other: CYP2D6-SS, 30 °C
[10] = CYP2D6-PLS, 100 μM MDMA, exponential fit
[11] = kinetic model fit, kinetics of MIC formation
[12] = kinetic model fit, kinetics of DHMA production

For `CNC(C)Cc1ccc2c(c1)OCO2` (stereo not drawn) [MDMA, 3,4-methylenedioxymethamphetamine], the Kd [1] was 23.9 µM, the “reversibility of inactivation of CYP2D6” value ([1]; CYP2D6-PLS) was “reversible” and the “Kobs (TDI)” value [1, 10] was 0.15 min⁻¹. For the same molecule, the “maximal depth of TDI at enzyme saturation with MDMA” value ([1]; CYP2D6-PLS, DXM as probe substrate, Michaelis-Menten fit) was 80±8%, the “relative amplitude of TDI at MDMA saturation” value ([1]; CYP2D6-PLS, rate of BMAMC metabolism) was “over 80%” and the k3 ([1]; kinetic model fit, TDI) was 3.2 min⁻¹. It also gave a k4 ([1]; kinetic model fit, TDI) of 0.085 min⁻¹, a k5 ([1]; kinetic model fit, TDI) of 0.033 min⁻¹ and a k6 ([1]; kinetic model fit, TDI, MDMA-independent inactivation) of 0.005 min⁻¹. For the same molecule, the Finact ([1]; kinetic model fit, TDI, value fixed from MIC analysis) was 0.42, the “Amax (MIC)” value [2] was 49% and the “Kobs (MIC)” value [2] was 0.19 min⁻¹. For the same molecule, the “physiological concentration of MDMA in human liver” value [3] was ≤ 10 pM, the Kd (human CYP2D6) was 21.8 ± 7.7 µM and the “maximal amplitude of the spin shift” value (human CYP2D6) was 6.0± 1.5%. For the same molecule, the “Amax (MIC)” value [4, 10] was 37%, the “Kobs (MIC)” value [4, 10] was 0.085 min⁻¹ and the “maximal amplitude of MIC formation” value ([4]; CYP2D6-PLS, saturating MDMA) was 45 ± 3 % of the total P450 content. For the same molecule, the Kd ([4]; kD, kinetic model fit, kinetics of MIC formation, k2/k1 with k1 fixed) was 55.5 µM, the k3 [4, 11] was 1.7 min⁻¹ and the k4 [4, 11] was 0.167 min⁻¹. For the same molecule, the k5 [4, 11] was 0.027 min⁻¹, the Finact ([4]; kinetic model fit, kinetics of MIC formation, CYP2D6-PLS) was 0.423 and 0.42 and the “peak concentration in blood plasma” value [5] was 1 pM. The Kd [6] was 49.5 µM, the “MDMA concentration after incubation” value ([6]; CYP2D6-PLS with NADPH, 1 hour, initial 5 μM MDMA) was 1.5 µM and the “decrease in MDMA concentration” value ([6]; CYP2D6-PLS with NADPH, 1 hour, initial 100 μM MDMA) was ≤ 30 % of the initial concentration. It also gave a k3 [6, 12] of 3.9 min⁻¹, a k4 [6, 12] of 0.14 min⁻¹ and a k5 [6, 12] of 0.047 min⁻¹. The k6 ([6]; kinetic model fit, kinetics of DHMA production, MDMA-independent inactivation) was 0.041 min⁻¹, the Finact ([6]; kinetic model fit, kinetics of DHMA production, value fixed from MIC analysis) was 0.42 and the “Kobs (TDI)” value [7] was 0.28 min⁻¹. For the same molecule, the “maximal amplitude of the spin shift (Amax)” value [8] was 8.1% and 10.9±5.5% and the Kd [8] was 24 µM and 27.9 µM.

For `CCCCNCc1cc(=O)oc2cc(OC)ccc12` [BMAMC, N-butyl 7-methoxy-4-(aminomethyl)-coumarin], the Km (CYP2D6) is given as 1.5 µM.

In the case of `COc1cc([C@@H]2c3cc4c(cc3[C@H](O)[C@H]3COC(=O)[C@H]23)OCO4)cc(OC)c1OC` [podophylotoxin], the “reversibility of the Fe2+:carbene complex (MIC)” value (CYP3A4) is listed as “virtually irreversible”.

In the case of `COc1ccc2c(c1)[C@]13CCCC[C@@H]1[C@H](C2)N(C)CC3` [DXM, Dextromethorphan], the Kd (human CYP2D6) is reported as 45.7 ± 3.1 µM, the “maximal amplitude of the spin shift” value (human CYP2D6) is reported as 11.9±1.8% and the “maximal amplitude of the spin shift (Amax)” value [8] is reported as 25% and 24.7±0.4%. For the same molecule, the Kd [8] was 52 µM and 53.2 µM.

B1: CYP2D6 (CYP2D6 Supersomes) (Homo sapiens) (protein)
chain: MGLEALVPLAVIVAIFLLLVDLMHRRQRWAARYPPGPLPLPGLGNLLHVDFQNTPYCFDQLRRRFGDVFSLQLAWTPVVVLNGLAAVREALVTHGEDTADRPPVPITQILGFGPRSQGVFLARYGPAWREQRRFSVSTLRNLGLGKKSLEQWVTEEAACLCAAFANHSGRPFRPNGLLDKAVSNVIASLTCGRRFEYDDPRFLRLLDLAQEGLKEESGFLREVLNAVPVLLHIPALAGKVLRFQKAFLTQLDELLTEHRMTWDPAQPPRDLTEAFLAEMEKAKGNPESSFNDENLRIVVADLFSAGMVTTSTTLAWGLLLMILHPDVQRRVQQEIDDVIGQVRRPEMGDQAHMPYTTAVIHEVQRFGDIVPLGVTHMTSRDIEVQGFRIPKGTTLITNLSSVLKDEAVWEKPFRFHPEHFLDAQGHFVKPEAFLPFSAGRRACLGEPLARMELFLFFTSLLQHFSFSVPTGQPRPSHHGVFAFLVSPSPYELCAVPR
B1 gave a Km [9] of 3.5 µM.
